Measured values reported in US12466821B2 (Novartis AG, priority 2018, dated 2025).

Assays:
[1] = test system: Luciferase-encoding HCMV, AD169 strain; experiment: CMV Luciferase assay (cellular herpesvirus replication); type: cell-based; conditions: Human betaherpesvirus 5, AD169, read-out: CMV-Luc Cellular EC50
How it was run: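 Reporter HCMV AD169 with luciferase driven by late pp28 promoter, so signal requires viral DNA replication; NN-NHDF fibroblasts in 2% FBS medium, compound (0.0159–50 or 0.00318–10 μM, 0.5% DMSO) added 1 h before infection at MOI 1. Luminescence read 72 hpi; EC50 from 4-parameter fit of control-normalized %.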

[2] = molecular target: human HSV DNA polymerase UL30 (Human herpesvirus 1 (strain 17) (HHV-1) (Human herpes simplex virus 1), UniProt P04293); experiment: HSV polymerase biochemical assay (molecular beacon-based)
How it was run: (§1)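 Full-length wild-type N-terminal MBP-fusion polymerases from sf9 cells were used at 100 pM (CMV) or 625 pM (HSV) in Tris pH 7.5, 10 mM MgCl2, and preincubated with inhibitor for 30 min at RT. Reactions with 1.25 uM each dNTP, 200 nM primer and 100 nM molecular beacon ran 60 min (CMV) or 20 min (HSV) at RT. Fluorescence was read at 480/535 nm and IC50 derived.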

[3] = molecular target: human CMV DNA polymerase UL54 (Human cytomegalovirus (strain AD169) (HHV-5) (Human herpesvirus 5), UniProt P08546); experiment: CMV polymerase biochemical assay (molecular beacon-based)
How it was run: as §1

Structure (SMILES)	EC50 [1] [µM]	IC50 [2] [µM]	IC50 [3] [µM]
O=C(NCc1ccc(Cl)cc1)c1cc(CF)c2n(c1=O)CCN(CCN1CCCS1(=O)=O)C2=O [Example 141]	1.65	0.328	0.0728
N#Cc1ccc(CNC(=O)c2ccc3n(c2=O)CCN(CC2(S(=O)(=O)N4CC(F)(F)C4)CC2)C3=O)cc1F [Example 84-2]	0.0548	0.0806	0.0028
O=C(NCc1ccc(Cl)cc1)c1ccc2n(c1=O)CCN(CCN1CCCS1(=O)=O)C2=O [Example 64, N-(4-chlorobenzyl)-2-(2-(1,1-dioxidoisothiazolidin-2-yl)ethyl)-1,6-dioxo-2,3,4,6-tetrahydro-1H-pyrido[1,2-a]pyrazine-7-carboxamide]	0.0961	0.181	0.0336
N#Cc1ccc(CNC(=O)c2ccc3n(c2=O)CCN(CC2(S(=O)(=O)C4(CO)CC4)CC2)C3=O)cc1F [Example 12]	0.0197	0.0235	0.0004
CC(C)S(=O)(=O)C1(CN2CCn3c(ccc(C(=O)NCc4ccc(C#N)c(F)c4)c3=O)C2=O)CC1 [Example 33]	0.0331	0.0482	0.001
O=C(NCc1ccc(Cl)cc1)c1ccc2n(c1=O)CCN(CC1(S(=O)(=O)C3CC3)CC1)C2=O [Example 2]	0.0081	0.0155	0.0002
Cc1cc(C(=O)NCc2ccc(C#N)c(F)c2)c(=O)n2c1C(=O)N(CC1(S(=O)(=O)C3CC3)CC1)CC2 [Example 93-3]	0.021	0.0283	0.0059
CC(=O)N(C)CCN1CCn2c(ccc(C(=O)NCc3ccc(Cl)cc3)c2=O)C1=O [Example 61]	6.34	5.56	0.364
CC(C)(CN)S(=O)(=O)C1(CN2CCn3c(ccc(C(=O)NCc4ccc(Cl)cc4)c3=O)C2=O)CC1 [Example 181, 2-((1-((1-amino-2-methylpropan-2-yl)sulfonyl)cyclopropyl)methyl)-N-(4-chlorobenzyl)-1,6-dioxo-1,3,4,6-tetrahydro-2H-pyrido[1,2-a]pyrazine-7-carboxamide]	0.0051	0.0374	0.0011
CC(C)(c1nnn[nH]1)S(=O)(=O)C1(CN2CCn3c(ccc(C(=O)NCc4ccc(Cl)cc4)c3=O)C2=O)CC1 [Example 186, 2-((1-((2-(1H-tetrazol-5-yl)propan-2-yl)sulfonyl)cyclopropyl)methyl)-N-(4-chlorobenzyl)-1,6-dioxo-1,3,4,6-tetrahydro-2H-pyrido[1,2-a]pyrazine-7-carboxamide]	6.66	0.0205	0.0012
COCC1(S(=O)(=O)C2(CN3CCn4c(ccc(C(=O)NCc5ccc(C#N)cc5)c4=O)C3=O)CC2)CC1 [Example 15]	0.0302	0.026	0.0007
COCCN1CCn2c(ccc(C(=O)NCc3ccc(Cl)cc3)c2=O)C1=O [Example 55]	6.71	11.5	0.708
C[C@H](CCO)S(=O)(=O)C1(CN2CCn3c(ccc(C(=O)NCc4ccc(Cl)cc4)c3=O)C2=O)CC1 (single isomer, unassigned) [Example 6, N-(4-chlorobenzyl)-2-((1-((4-hydroxybutan-2-yl)sulfonyl)cyclopropyl)methyl)-1,6-dioxo-2,3,4,6-tetrahydro-1H-pyrido[1,2-a]pyrazine-7-carboxamide]	0.0928	0.0548	0.0024
CN(CCN1CCn2c(c(C3CC3)cc(C(=O)NCc3ccc(Cl)cc3)c2=O)C1=O)S(C)(=O)=O [Example 128, N-(4-chlorobenzyl)-9-cyclopropyl-2-(2-(N-methylmethylsulfonamido)ethyl)-1,6-dioxo-1,3,4,6-tetrahydro-2H-pyrido[1,2-a]pyrazine-7-carboxamide]	2.38	2.56	0.153
